In ChEMBL document CHEMBL1629593 (Antimicrob Agents Chemother, 2009):
Activity calls are given as the source filed them. The rule behind the calls is not given here.

Columns and labels:
[1] = Ratio of fAUC in […] pharmacodynamic model to MIC for heterogeneous vancomycin-intermediate Staphylococcus aureus Mu3 at 750 mg treated every 12 hrs; type: functional
[2] = Ratio of fAUC in […] pharmacodynamic model to MIC for heterogeneous vancomycin-intermediate Staphylococcus aureus Mu3 at 1000 mg treated every 12 hrs; type: functional
Staphylococcus aureus [3] = test: Antibacterial activity against heterogeneous vancomycin-intermediate Staphylococcus aureus 1629 infected in […] pharmacodynamic model at 700 mg treated every 12 hrs measured after 72 hrs post dose; type: functional
Staphylococcus aureus [4] = test: Antibacterial activity against heterogeneous vancomycin-intermediate Staphylococcus aureus Mu3 infected in […] pharmacodynamic model at 2500 mg treated every 12 hrs measured after 48 hrs post dose; type: functional
Staphylococcus aureus [5] = test: Antibacterial activity against heterogeneous vancomycin-intermediate Staphylococcus aureus Mu3 infected in […] pharmacodynamic model at 1500 mg treated every 12 hrs measured after 48 hrs post dose; type: functional
Staphylococcus aureus [6] = test: Antibacterial activity against heterogeneous vancomycin-intermediate Staphylococcus aureus Mu3 infected in […] pharmacodynamic model at 1000 mg treated every 12 hrs measured after 48 hrs post dose; type: functional
Staphylococcus aureus [7] = test: Antibacterial activity against heterogeneous vancomycin-intermediate Staphylococcus aureus Mu3 infected in […] pharmacodynamic model at 2500 mg treated every 12 hrs measured after 24 hrs post dose; type: functional
Staphylococcus aureus [8] = test: Antibacterial activity against heterogeneous vancomycin-intermediate Staphylococcus aureus Mu3 infected in […] pharmacodynamic model at 1000 mg treated every 12 hrs measured after 24 hrs post dose; type: functional
Staphylococcus aureus [9] = test: fCmin in multidrug-resistant Staphylococcus aureus 3286 infected […] pharmacodynamic model at 4000 mg treated every 12 hrs; type: ADME, organism-based
Staphylococcus aureus [10] = test: fCmin in multidrug-resistant Staphylococcus aureus 3286 infected in vivo pharmacodynamic model at 1500 mg treated every 12 hrs; type: ADME, organism-based
Staphylococcus aureus [11] = test: fCmin in multidrug-resistant Staphylococcus aureus 3286 infected in vivo pharmacodynamic model at 2000 mg treated every 12 hrs; type: ADME, organism-based
Staphylococcus aureus [12] = test: fCmin in heterogeneous vancomycin-intermediate Staphylococcus aureus Mu3 infected in vivo pharmacodynamic model at 2250 mg treated every 12 hrs; type: ADME, organism-based
Staphylococcus aureus [13] = test: fCmin in heterogeneous vancomycin-intermediate Staphylococcus aureus Mu3 infected […] pharmacodynamic model at 2000 mg treated every 12 hrs; type: ADME, organism-based
Staphylococcus aureus [14] = test: fCmin in heterogeneous vancomycin-intermediate Staphylococcus aureus Mu3 infected in vivo pharmacodynamic model at 1500 mg treated every 12 hrs; type: ADME, organism-based
Staphylococcus aureus [15] = test: fCmin in heterogeneous vancomycin-intermediate Staphylococcus aureus Mu3 infected in vivo pharmacodynamic model at 700 mg treated every 12 hrs; type: ADME, organism-based
Staphylococcus aureus [16] = test: fCmin in heterogeneous vancomycin-intermediate Staphylococcus aureus Mu3 infected […] pharmacodynamic model at 1000 mg treated every 12 hrs; type: ADME, organism-based
[17] = Ratio of fAUC in […] pharmacodynamic model to MIC for multidrug-resistant Staphylococcus aureus 3286 at 4000 mg treated every 12 hrs; type: functional
[18] = Ratio of fAUC in […] pharmacodynamic model to MIC for multidrug-resistant Staphylococcus aureus 3286 at 2000 mg treated every 12 hrs; type: functional
[19] = Ratio of fAUC in […] pharmacodynamic model to MIC for multidrug-resistant Staphylococcus aureus 3286 at 1000 mg treated every 12 hrs; type: functional
[20] = Ratio of fAUC in […] pharmacodynamic model to MIC for multidrug-resistant Staphylococcus aureus 3286 at 1500 mg treated every 12 hrs; type: functional
Staphylococcus aureus [21] = test: fCmin in multidrug-resistant Staphylococcus aureus 3286 infected […] pharmacodynamic model at 1000 mg treated every 12 hrs; type: ADME, organism-based
Staphylococcus aureus [22] = test: fCmin in heterogeneous vancomycin-intermediate Staphylococcus aureus 1629 infected in vivo pharmacodynamic model at 4000 mg treated every 12 hrs; type: ADME, organism-based
Staphylococcus aureus [23] = test: fCmin in heterogeneous vancomycin-intermediate Staphylococcus aureus 1629 infected in vivo pharmacodynamic model at 1750 mg treated every 12 hrs; type: ADME, organism-based
Staphylococcus aureus [24] = test: fCmin in heterogeneous vancomycin-intermediate Staphylococcus aureus 1629 infected in vivo pharmacodynamic model at 2000 mg treated every 12 hrs; type: ADME, organism-based
Staphylococcus aureus [25] = test: fCmin in heterogeneous vancomycin-intermediate Staphylococcus aureus 1629 infected in vivo pharmacodynamic model at 1500 mg treated every 12 hrs; type: ADME, organism-based
Staphylococcus aureus [26] = test: fCmin in heterogeneous vancomycin-intermediate Staphylococcus aureus 1629 infected […] pharmacodynamic model at 1000 mg treated every 12 hrs; type: ADME, organism-based
Staphylococcus aureus [27] = test: fCmin in heterogeneous vancomycin-intermediate Staphylococcus aureus 1629 infected in vivo pharmacodynamic model at 750 mg treated every 12 hrs; type: ADME, organism-based
Staphylococcus aureus [28] = test: fCmin in heterogeneous vancomycin-intermediate Staphylococcus aureus Mu3 infected in vivo pharmacodynamic model at 2500 mg treated every 12 hrs; type: ADME, organism-based
[29] = Ratio of fAUC in […] pharmacodynamic model to MIC for heterogeneous vancomycin-intermediate Staphylococcus aureus 1629 at 4000 mg treated every 12 hrs; type: functional
[30] = Ratio of fAUC in […] pharmacodynamic model to MIC for heterogeneous vancomycin-intermediate Staphylococcus aureus 1629 at 2000 mg treated every 12 hrs; type: functional
[31] = Ratio of fAUC in […] pharmacodynamic model to MIC for heterogeneous vancomycin-intermediate Staphylococcus aureus 1629 at 1000 mg treated every 12 hrs; type: functional
[32] = Ratio of fAUC in […] pharmacodynamic model to MIC for heterogeneous vancomycin-intermediate Staphylococcus aureus 1629 at 750 mg treated every 12 hrs; type: functional
[33] = Ratio of fAUC in […] pharmacodynamic model to MIC for heterogeneous vancomycin-intermediate Staphylococcus aureus Mu3 at 2500 mg treated every 12 hrs; type: functional
[34] = Ratio of fAUC in […] pharmacodynamic model to MIC for heterogeneous vancomycin-intermediate Staphylococcus aureus Mu3 at 5000 mg treated every 12 hrs; type: functional
[35] = Ratio of fAUC in […] pharmacodynamic model to MIC for heterogeneous vancomycin-intermediate Staphylococcus aureus Mu3 at 2250 mg treated every 12 hrs; type: functional
[36] = Ratio of fAUC in […] pharmacodynamic model to MIC for heterogeneous vancomycin-intermediate Staphylococcus aureus Mu3 at 2000 mg treated every 12 hrs; type: functional
Staphylococcus aureus [37] = test: Antibacterial activity against multidrug-resistant Staphylococcus aureus 3286 infected in […] pharmacodynamic model at 2000 mg treated every 12 hrs measured after 48 hrs post dose; type: functional
Staphylococcus aureus [38] = test: Antibacterial activity against multidrug-resistant Staphylococcus aureus 3286 infected in […] pharmacodynamic model at 4000 mg treated every 12 hrs measured after 72 hrs post dose; type: functional
[39] = Ratio of fAUC in […] pharmacodynamic model to MIC for multidrug-resistant Staphylococcus aureus; type: functional
Staphylococcus aureus [40] = test: fCmin in heterogeneous vancomycin-intermediate Staphylococcus aureus Mu3 infected in vivo pharmacodynamic model at 5000 mg treated every 12 hrs; type: ADME, organism-based
Staphylococcus aureus [41] = test: Antibacterial activity against multidrug-resistant Staphylococcus aureus 3286 infected in in vitro pharmacodynamic model at 1000 to 2000 mg treated every 12 hrs using 10^6 CFU/ml inoculum by time-kill analysis; type: functional, organism-based

Question: Which fAUC/MIC [1] does the source give for `CN[C@H](CC(C)C)C(=O)N[C@H]1C(=O)N[C@@H](CC(N)=O)C(=O)N[C@H]2C(=O)N[C@H]3C(=O)N[C@H](C(=O)N[C@H](C(=O)O)c4cc(O)cc(O)c4-c4cc3ccc4O)[C@H](O)c3ccc(c(Cl)c3)Oc3cc2cc(c3O[C@@H]2O[C@H](CO)[C@@H](O)[C@H](O)[C@H]2O[C@H]2C[C@](C)(N)[C@H](O)[C@H](C)O2)Oc2ccc(cc2Cl)[C@H]1O` [VANCOMYCIN] here?
Answer: Its fAUC/MIC is 105.

Question: And the fAUC/MIC [2]?
Answer: Its fAUC/MIC is 168.

Question: What about the CFU/ml (Staphylococcus aureus [3]) of the same compound?
Answer: The CFU/ml was 3.

Question: What about the CFU/ml (Staphylococcus aureus [4]) of the same compound?
Answer: The CFU/ml was 2.

Question: What about the CFU/ml (Staphylococcus aureus [5]) of the same compound?
Answer: The CFU/ml was 3.

Question: What about the CFU/ml (Staphylococcus aureus [6]) of the same compound?
Answer: Its CFU/ml is 3.

Question: What about the CFU/ml (Staphylococcus aureus [7]) of the same compound?
Answer: Its CFU/ml is 2.

Question: What about the CFU/ml (Staphylococcus aureus [8]) of the same compound?
Answer: The CFU/ml was 2.

Question: And the fCmin (Staphylococcus aureus [9])?
Answer: Its fCmin is 22 mg/L.

Question: And the fCmin (Staphylococcus aureus [10])?
Answer: Its fCmin is 7 mg/L.

Question: What about the fCmin (Staphylococcus aureus [11]) of the same compound?
Answer: The fCmin was 12 mg/L.

Question: And the fCmin (Staphylococcus aureus [12])?
Answer: Its fCmin is 12 mg/L.

Question: And the fCmin (Staphylococcus aureus [13])?
Answer: The fCmin was 11 mg/L.

Question: And the fCmin (Staphylococcus aureus [14])?
Answer: The fCmin was 7 mg/L.

Question: What about the fCmin (Staphylococcus aureus [15]) of the same compound?
Answer: The fCmin was 3 mg/L.

Question: And the fCmin (Staphylococcus aureus [16])?
Answer: Its fCmin is 4 mg/L.

Question: And the fAUC/MIC [17]?
Answer: Its fAUC/MIC is 2576.

Question: What about the fAUC/MIC [18] of the same compound?
Answer: Its fAUC/MIC is 1084.

Question: And the fAUC/MIC [19]?
Answer: Its fAUC/MIC is 552.

Question: What about the fAUC/MIC [20] of the same compound?
Answer: The fAUC/MIC was 992.

Question: What about the fCmin (Staphylococcus aureus [21]) of the same compound?
Answer: Its fCmin is 3 mg/L.

Question: And the fCmin (Staphylococcus aureus [22])?
Answer: The fCmin was 22 mg/L.

Question: What about the fCmin (Staphylococcus aureus [23]) of the same compound?
Answer: The fCmin was 10 mg/L.

Question: And the fCmin (Staphylococcus aureus [24])?
Answer: Its fCmin is 12 mg/L.

Question: And the fCmin (Staphylococcus aureus [25])?
Answer: The fCmin was 7 mg/L.

Question: What about the fCmin (Staphylococcus aureus [26]) of the same compound?
Answer: Its fCmin is 3 mg/L.

Question: And the fCmin (Staphylococcus aureus [27])?
Answer: The fCmin was 3 mg/L.

Question: And the fCmin (Staphylococcus aureus [28])?
Answer: The fCmin was 16 mg/L.

Question: What about the fAUC/MIC [29] of the same compound?
Answer: Its fAUC/MIC is 644.

Question: What about the fAUC/MIC [30] of the same compound?
Answer: The fAUC/MIC was 271.

Question: What about the fAUC/MIC [31] of the same compound?
Answer: The fAUC/MIC was 138.

Question: And the fAUC/MIC [32]?
Answer: Its fAUC/MIC is 105.

Question: And the fAUC/MIC [33]?
Answer: Its fAUC/MIC is 374.

Question: And the fAUC/MIC [34]?
Answer: The fAUC/MIC was 799.

Question: And the fAUC/MIC [35]?
Answer: Its fAUC/MIC is 317.

Question: What about the fAUC/MIC [36] of the same compound?
Answer: Its fAUC/MIC is 269.

Question: What about the CFU/ml (Staphylococcus aureus [37]) of the same compound?
Answer: Its CFU/ml is 0.5.

Question: And the CFU/ml (Staphylococcus aureus [38])?
Answer: Its CFU/ml is 0.5.

Question: What about the fAUC/MIC [39] of the same compound?
Answer: The fAUC/MIC was “>=180”.

Question: What about the fCmin (Staphylococcus aureus [40]) of the same compound?
Answer: The fCmin was 26 mg/L.

Question: What about the Activity (Staphylococcus aureus [41]) of the same compound?
Answer: Its Activity is “Active”.
